{
  "source": "patent US6486177B2",
  "about": "“Methods for treatment of cognitive and menopausal disorders with D-threo methylphenidate” (Celgene Corporation, priority 1995, dated 2002)",
  "key": {"[1]": {"assay": "D-threo vs DL-threo methylphenidate vs placebo in patients in the context of ADD: objective tests and subjective observations", "assay_type": "in vivo, human", "settings": "for performance in objective tests: at the 6 hour time point, versus DL-threo racemate or placebo", "text": "The present inventors have observed that in the context of ADD, D-threo methylphenidate has a longer duration of action than DL-methylphenidate of at least six hours.\nResponse by patients with cognitive deficiencies described herein is generally determined by two types of measurements: objective measures of a patient's ability to concentrate and remain focused on a task such as performing a math test; and subjective scores of a patient's performance."}, "[2]": {"settings": "cited from earlier work"}, "[3]": {"settings": "children suffering from ADHD; Clin. Pharmacol. Ther. 52: 561-568 (1992); cited from earlier work"}},
  "data": [
    {"compound": "COC(=O)C(c1ccccc1)C1CCCCN1", "note": "(racemic) [DL-threo racemate, DL-threo-methylphenidate]", "values": [
      {"measurement": "performance in objective tests", "setting": "[1]", "result": "did not perform better after that time period than those who received a placebo"},
      {"measurement": "euphoric effect / potential for abuse", "setting": "[2]; administered intravenously or through inhalation or ingestion", "result": "produces a euphoric effect"},
      {"measurement": "undesirable side effects", "setting": "[2]; use of the racemate", "result": "anorexia, weight loss, insomnia, dizziness and dysphoria"}
    ]},
    {"compound": "COC(=O)[C@H](c1ccccc1)[C@H]1CCCCN1", "note": "[D-threo methylphenidate, D-threo-methylphenidate]", "values": [
      {"measurement": "pharmacodynamic activity / pharmacological effectiveness", "setting": "[3]", "result": "pharmacodynamic activity of DL-threo-methylphenidate resides in the D-threo isomer"},
      {"measurement": "persistence of beneficial effects", "setting": "[1]; D-threo isomer alone versus in combination with the L-threo isomer", "result": "persist for a longer period time when the D-threo isomer is administered alone than when it is administered in combination with the L-threo isomer"},
      {"measurement": "performance in objective tests", "setting": "[1]", "result": "performed better in objective tests than patients who received the DL-threo racemate or a placebo"},
      {"measurement": "subjective observations: duration of beneficial effects", "setting": "[1]; same patients, versus DL-threo racemate", "result": "experienced beneficial effects of the drug for longer times than did those who received the DL-threo racemate"}
    ]},
    {"compound": "COC(=O)[C@@H](c1ccccc1)[C@@H]1CCCCN1", "note": "(single isomer, unassigned) [L isomer, L-threo-methylphenidate, reference compound]", "values": [
      {"measurement": "pharmacodynamic activity / pharmacological effectiveness", "setting": "[3]", "result": "apparently makes no significant contribution to the pharmacological effectiveness of the drug"}
    ]}
  ]
}
